According to patent publication US20210023065A1, “AMPHIPHILIC THIOL COMPOUNDS AND USES THEREOF” (THE REGENTS OF THE UNIVERSITY OF CALIFORNIA, priority 2018, published 2021):

Assays:
Type in all cases: cell-based
[1] = system: ERK1/2 (pY204/pY187); assay: Detection of ERK1/2 phosphorylation in HeLa cells (western blot); details: 1.25 μmol/10^7 cells, 20 min, then EGF 5 min
Method: (§1) HeLa cells were grown to confluency in 6 cm plates and then serum starved overnight in OptiMEM. Stock solutions of compounds were prepared in DMSO as before and diluted to the final indicated concentration in 2 mL of OptiMEM media before adding to cells. Cells were incubated at 37° C. for 20 min and then stimulated with […] EGF (ThermoFisher) for 5 min. Media was then removed and cells washed once with HBSS. 1.5 mL of HBSS was then added to each plate. Cells were detached using a cell scraper, pelleted by centrifugation at 1,000 rcf for 5 min and the pellet processed using MPER™ Mammalian Protein Extraction Reagent (ThermoFisher) with the addition of Halt Protease Inhibitor Cocktail (ThermoFisher) and 1 mM sodium orthovanadate. Samples were resolved by electrophoresis using 4-20% SDS-polyacrylamide gels (Bio-Rad) under denaturing and reducing conditions. Proteins were then electrotransferred to a PVDF membrane (Bio-Rad). The membrane was blocked with 3% BSA and then subjected to immunoblot analysis using AKT/MAPK Signaling Pathway Antibody Cocktail (ab151279) (Abcam) and secondary goat anti-rabbit IgG-HRP (sc-2030) (Santa Cruz Biotechnology). […]
(§2) Assays were performed in 3 biological replicates. Western blots were analyzed using ImageJl. […]

[2] = target: T1, SNAP25 (Homo sapiens, UniProt P60880); assay: Acyl resin-assisted capture detection of SNAP25 palmitoylation in HeLa cells; details: 1.25 μmol/10^7 cells, relative to vehicle
T1 construct: we detected the palmitoylation levels of eight known palmitoylated proteins after treatment with 1; endogenous in cells; host or cells: HeLa
T1 sequence (P60880 whole entry): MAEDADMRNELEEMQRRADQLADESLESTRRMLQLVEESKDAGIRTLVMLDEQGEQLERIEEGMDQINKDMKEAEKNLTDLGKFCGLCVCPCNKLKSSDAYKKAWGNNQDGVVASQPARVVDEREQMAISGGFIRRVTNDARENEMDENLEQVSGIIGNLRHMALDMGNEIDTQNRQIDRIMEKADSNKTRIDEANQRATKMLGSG
Method: HeLa cells were grown to confluency in 10 cm plates. Stock solutions of compounds were prepared in DMSO as before and diluted to the final indicated concentration in 5.5 mL of OptiMEM media before adding to cells. Cells were incubated at 37° C. for 20 min and then media removed and 3 mL of HBSS added to each plate. Cells were detached using a cell scraper, pelleted by centrifugation at 1,000 rcf for 5 min and the pellet processed using a CAPTUREome S-Palmitoylated Protein Kit (Badrilla, UK) according to the manufacturer's protocol. Samples were resolved by electrophoresis using 4-20% SDS-polyacrylamide gels (Bio-Rad) under denaturing and reducing conditions. Proteins were then electrotransferred to a PVDF membrane (Bio-Rad). […]
Assays were performed in 3 biological replicates. […] Western blots were analyzed using ImageJ^1. […]

[3] = target: T2, endogenous HRas (Homo sapiens, UniProt P01112); assay: Acyl resin-assisted capture detection of HRas palmitoylation in HeLa cells; details: HeLa cells
T2 construct: endogenous in cells; host or cells: HeLa
T2 sequence (P01112 whole entry): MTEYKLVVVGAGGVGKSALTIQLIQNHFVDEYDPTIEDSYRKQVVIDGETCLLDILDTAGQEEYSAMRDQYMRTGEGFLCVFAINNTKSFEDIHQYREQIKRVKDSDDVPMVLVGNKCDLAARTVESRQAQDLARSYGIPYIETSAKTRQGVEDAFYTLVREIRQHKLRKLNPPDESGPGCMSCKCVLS
Method: HeLa cells were grown to confluency in 10 cm plates. Stock solutions of compounds were prepared in DMSO as before and diluted to the final indicated concentration in 5.5 mL of OptiMEM media before adding to cells. Cells were incubated at 37° C. for 20 min and then media removed and 3 mL of HBSS added to each plate. Cells were detached using a cell scraper, pelleted by centrifugation at 1,000 rcf for 5 min and the pellet processed using a CAPTUREome S-Palmitoylated Protein Kit (Badrilla, UK) according to the manufacturer's protocol. Samples were resolved by electrophoresis using 4-20% SDS-polyacrylamide gels (Bio-Rad) under denaturing and reducing conditions. Proteins were then electrotransferred to a PVDF membrane (Bio-Rad). The membrane was blocked with 3% BSA and then subjected to immunoblot analysis using Anti-GTPase HRAS antibody (ab97488) (Abcam), Calnexin Antibody (2433S) (Cell Signaling Technology), Gα(i) Antibody (5290S) (Cell Signaling Technology), SNAP25 Antibody (5308S) (Cell Signaling Technology), Flotillin-2 Antibody (3436S) (Cell Signaling Technology), CD44 Antibody (3570S) (Cell Signaling Technology), Lyric/Metadherin Antibody (14065S) (Cell Signaling Technology), Flotillin-1 Antibody (3253S) (Cell Signaling Technology) and secondary goat anti-rabbit IgG-HRP (sc-2030) (Santa Cruz Biotechnology) or goat anti-mouse IgG HRP (ThermoFisher). Chemiluminescent detection was performed by using SuperSignal West Pico PLUS chemiluminescent substrate (ThermoFisher) according to the manufacturer's instructions.
Assays were performed in 3 biological replicates. Each replicate involved the analysis of 4 to 5 conditions side-by-side. Western blots were analyzed using ImageJ^1. The intensity of the protein band in each cleaved bound fraction (palmitoylated protein fraction) was normalized to the intensity of the corresponding input fraction (total protein fraction). The values within individual S 4 replicates were normalized to the control or vehicle condition and reported as means±SD. An unpaired t test was performed to determine the significance between means.

[4] = system: EGFP-KRas4b; assay: Live-cell imaging of EGFP-KRas4b localization in HeLa cells; details: 1.25 μmol/10^7 cells
Method: Imaging was performed on an Axio Observer Z1 inverted microscope (Carl Zeiss Microscopy Gmb, Germany) with Yokogawa CSU-X1 spinning disk confocal unit using a 63×, 1.4 NA oil immersion or 20×, 0.8 NA objective to an ORCA-Flash4.0 V2 Digital CMOS camera (Hamamatsu, Japan). For live cell imaging, an incubation chamber with temperature and CO2 controllers (World Precision Instruments) was utilized. Fluorophores were excited with s diode laser (488 nm; 30 mW). Images were acquired using Zen Blue software (Carl Zeiss) and processed using Image J.^1 HeLa cells were plated at 40,000 cells/well in an 8-well Lab-Tek chamber slide (ThermoFisher) and allowed to adhere overnight. Cells were transfected with mEGFP-HRas or mEGFP-KRas4b using Lipofectamine 2000 (ThermoFisher) according to the manufacturer's protocol. 50 mM stocks of compounds 1 and 2 were prepared by dissolving the solid compound in DMSO containing 100 mM tris(2-S 3 carboxyethyl)phosphine hydrochloride (TCEP) as a preservative. From these stocks, a solution of 200 μM [1 or 2] (with 400 μM TCEP), or 400 μM TCEP was prepared in OptiMEM media. Before imaging, cells were exchanged into OptiMEM media. The diluted solutions were added to the indicated final concentration within individual wells of the chamber slide and cells imaged while maintaining 37° C., 5% CO2 in the incubation chamber. […]

[5] = system: AKT1 (pS473); assay: Detection of AKT1 phosphorylation in HeLa cells (western blot); details: 1.25 μmol/10^7 cells, 20 min, then EGF 5 min
Method: as §1, §2

reduction of palmitoylation level of SNAP25 [2]: > 80%
reduction of palmitoylation level of HRas ([3]; 1.25 μmol/10^7 cells, relative to vehicle): > 80%
depalmitoylation of HRas in the presence of palmostatin B (PB) ([3]; 1.25 μmol/10^7 cells, with APT-1/2 inhibitor PB): efficiently depalmitoylated HRas
HRas palmitoylation over a range of concentrations ([3]; 0.31-1.25 μmol/10^7 cells, 20 min): decreased in a dose-dependent manner
depalmitoylation of HRas ([3]; 20 min, 1 at 1.25 μmol/10^7 cells, same experiments with TCEP alone or compound 2): near complete depalmitoylation
Structure (SMILES): CCCCCCCCNC(=O)[C@@H](N)CS [compound 1, H2N-L-Cys-Oct]
ERK1/2 phosphorylation after EGF stimulation [1]: but not ERK1/2 phosphorylation
EGFP-KRas4b protein localization (fluorescence) [4]: no change in protein localization
AKT1 phosphorylation after EGF stimulation [5]: significant decrease
